This is an account of results in patent publication US20240209022A1, “NOVEL PEPTIDE HAVING ANTI-INFLAMMATORY AND TISSUE REGENERATIVE ACTIONS” (KOREA RESEARCH INSTITUTE OF BIOSCIENCE AND BIOTECHNOLOGY, priority 2020, published 2024).

Test [1] deals with TPA-induced dermatitis model. Kind of test: TPA-induced dermatitis (ear) model. The test is classed as in vivo, C57BL/6J mice. The note with it: 26 hours after TPA application; vs PBS buffer group. The method, then:
As a dermatitis model, one day before sample application, both ears of 8-week-old male C57BL/6J mice were shaved, 2.5 μg of TPA (12-otetrade-canoyl-phorbol-13-acetate) dissolved in 25 μL acetone was applied to the right ear of the mouse to induce skin swelling and inflammation, and the left ear was coated with 25 μL of acetone, which is a TPA solvent, and used as a negative control. From 3 days before TPA application, Amuc_1409 or PEP001 to PEP013 were each dissolved in PBS buffer at a concentration of 6.7 μM, and then injected into the abdominal cavity of mice by 150 μL per animal once a day at the same time. On day 3 (0 days) after administration of the peptide, the peptide was injected intraperitoneally one time 30 minutes before TPA application, and the drug was additionally injected intraperitoneally 3 hours after TPA injection. Into the control group, the same volume of PBS buffer was intraperitoneally injected, and the experiment was terminated 26 hours after TPA application. 26 hours after TPA application, the ear thickness was measured and photographs of both ears for each test group were taken in order to examine the degree of swelling and inflammation relief in the ears. After the test animal was sacrificed, the weight per area of the ear was measured, the ears of mice were fixed in 10% neutral buffered formalin at room temperature for 24 hours or more, and then embedded in paraffin to prepare 5 μm-thick sections, and the sections were stained with hematoxylin and eosin (H&E). The degrees of swelling of the ear and inflammatory cell infiltration were examined by observing the H&E-stained tissue section under an optical microscope.

In test [2] the test system is animal model of muscle atrophy/muscle strength loss due to natural aging (geriatric sarcopenia). Kind of test: Geriatric sarcopenia model (natural aging): muscle strength and muscle mass. Type of test: in vivo, C57BL/6 mice. The note with it: vs PBS buffer group; for grip strength: 11th week of administration, oral 0.2 μg/150 μL; for GC (gastrocnemius) muscle weight / TA (tibialis anterior) muscle weight / soleus muscle weight: after the experiment. The method, then:
The efficacy of the peptides was verified using an animal model of muscle atrophy/muscle strength loss due to natural aging (geriatric sarcopenia). At the time of administration of Amuc_1409, 80 to 83-week old C57BL/6 male mice were used. Amuc_1409 was dissolved in PBS buffer at a concentration of 2.4 μM and then orally administered to the mice by 150 μL per animal at the same time once a day for 32 weeks. To the control group, PBS buffer was orally administered in the same manner. At the 16th week of Amuc_1409 administration, aged mice were allowed to hold the wire net connected to the muscle strength probe of the grip strength meter with all four paws, and then the tail was carefully pulled backward to measure the maximum grip strength at the moment at which the mice held onto the wire net. For muscle weight, after administration, the gastrocnemius (GC), soleus, and tibialis anterior (TA) muscles from both hind paws of the aged mice of each group were carefully separated to avoid damage, and each weight was measured. Muscle weight versus body weight was calculated by correcting with the body weight of the mouse. After the end of the experiment, in order to analyze the size of muscle fibers in each group, TA muscles were fixed in 10% formalin, and frozen section samples (8 μm) were prepared to prepare slides. The prepared slides were washed with PBS buffer solution, permeabilized with 0.5% Triton X-100, blocked, and treated with primary antibody (anti-laminin). After 24 hours, a fluorescent secondary antibody (Alexa Fluor 488 Goat anti-rabbit IgG) was applied, and the slides were finally treated with DAPI for nuclear staining. The immunostained slides were subjected to photographing of muscle tissue using a confocal microscope. Using image analysis software (ImageInside), the distribution of cross-sectional area of muscle fibers was calculated for each size from a minimum of 500 μm^2 or less to 3500 μm^2 or more. Meanwhile, in order to examine the efficacy of Amuc_1409 as well as its fragments, 82- to 83-week-old C57BL/6 male mice were used. PEP001 was dissolved in PBS buffer at a concentration of 2.4 μM and then orally administered to the mice by 150 μL per animal at the same time once a day for 10 weeks. To the control group, PBS buffer was orally administered in the same manner. At the 10th week of PEP001 administration, the maximum grip strength and muscle weight were calculated in the same manner as the measurement in Amuc_1409. At the end of the experiment, a part of the GC muscle excised was homogenized with Trizol to extract RNA. Reverse transcriptase was added to the obtained RNA and reacted to synthesize cDNA, and SYBR Green and primers were added to perform quantitative real-time PCR (RT-qPCR). The gene expression level of insulin-like growth factor (IGF-1) involved in protein synthesis in muscle cells was then quantified. In addition, in order to confirm the efficacy of the novel tetrapeptides and tripeptides PEP006 to PEP013, the improvement efficacy on geriatric sarcopenia was examined using naturally aged 76 to 78-week old female C57BL/6J mice. For an additional 12 weeks, the novel tetrapeptides PEP006, PEP007, PEP008, PEP009, and PEP010 or novel tripeptides PEP011, PEP012, and PEP013 were each dissolved in PBS buffer at a concentration of 0.2 μg/150 μL and then orally administered to the naturally aged mice by 150 μL per mouse at the same time until the end of the test. To the control group, PBS buffer was orally administered in the same manner. For all animals, general symptoms were observed immediately before administration at the start of administration, and grip strength was measured at the 11th week of administration in order to analyze muscle strength attenuation. […]

Test [3] deals with C57BL/6 mice with telogen hair. Briefly: Hair growth promotion on shaved dorsal skin. The test is classed as in vivo. The note with it: day 28 after application; 30 μM topical; vs vehicle. The protocol:
In order to examine the hair growth promoting efficacy, 8-week-old C57BL/6 mice with telogen hair having pink dorsal skin were used. The mice were anesthetized, then the hair on the back of the mouse was removed using an electric hair clipper for animals. Amuc_1409 was dissolved in vehicle (50% ethanol, 20% propylene glycol, 30% water) at a concentration of 3.2 μM and then applied to the skin of the hair-removed site by 200 μL per animal using a pipette once a day for 21 days, and PEP006 to PEP013 were each dissolved in vehicle (50% ethanol, 20% propylene glycol, 30% water) at a concentration of 30 μM and then applied to the skin of the hair-removed site by 200 μL per animal using a pipette once a day for 28 days. For the control group, the same volume of vehicle (50% ethanol, 20% propylene glycol, 30% water) was applied to the skin.
Skin color and hair density were visually observed, scored according to the scoring criteria in Table 5, and graphed (Table 5).
After the experiment, the test animals were sacrificed, then the skin tissue of the mouse was fixed in 10% NBF at room temperature for 24 hours or more, and then embedded in paraffin to prepare a 5 μm-thick section, and the section was stained with (H&E) hematoxylin and eosin. The histological changes of the hair follicle tissue in the H&E-stained tissue sections were observed under an optical microscope. The number and depth of hair follicles and the thicknesses of dermis and subcutis were measured under an optical microscope, and the hair growth cycle was evaluated. The number of hair follicles was calculated by counting the number of hair follicles present in the subcutaneous tissue under a 100-magnification optical microscope. Changes in the depth of hair follicles and the thicknesses of dermis and subcutis were measured using the Image J program using a scale bar.

Consider GAY [PEP005], for which, in test [1], the ear thickness result was “significantly decreased”; the ear weight result is “significantly decreased”; the “erythema and swelling of the ear (macro photograph)” value (“erythema and swelling of the ear” for short) was “significantly reduced”.

In the case of AVS (AVSSIKGAY) [PEP004], in test [1], the ear thickness entry is “significantly decreased”; the ear weight result is “significantly decreased”; the “erythema and swelling of the ear” value is reported as “significantly reduced”.

Turning to AGAY (PEP006), in test [2], the grip strength result was “significantly increased”, the “GC (gastrocnemius) muscle weight” value was “tended to increase”, the “TA (tibialis anterior) muscle weight” value is given as “tended to increase” and the soleus muscle weight entry is listed as “tended to increase”. The “proportion of the area where hair grew out to the total area (hair growth score)” value (shortened to “proportion”) in test [3] is “tended to increase”.

Take VGAY (PEP010): in test [2], the grip strength entry is listed as “significantly increased”, the “GC (gastrocnemius) muscle weight” value is given as “tended to increase”, the “TA (tibialis anterior) muscle weight” value was “tended to increase” and the soleus muscle weight entry is on record as “tended to increase”.

As to AVSSIKGAY (PEP001), in test [1], the ear thickness entry is listed as “significantly decreased”; the ear weight entry is reported as “significantly decreased”; the “erythema and swelling of the ear” value is given as “significantly reduced”. For the same substance, in test [2] (10th week of administration, oral), the “muscle strength (grip strength)” value is “significantly increased”. Besides, the “IGF-1 gene expression in GC muscle” value in test [2] (10th week of administration) was “tended to increase”. In addition, in test [2], the “GC (gastrocnemius) muscle weight” value is listed as “significantly increased”, the “TA (tibialis anterior) muscle weight” value is “increased” and the soleus muscle weight result is listed as “significantly increased”.

For RGAY (PEP007), in test [2], the grip strength entry was “increased to a significant level”, the “GC (gastrocnemius) muscle weight” value is “tended to increase”, the “TA (tibialis anterior) muscle weight” value is “tended to increase” and the soleus muscle weight result is given as “increased to a significant level”. In addition, the “proportion” value in test [3] was “tended to increase”.

For the substance AGS [PEP012], in test [2], the grip strength result is “significantly increased”, the “GC (gastrocnemius) muscle weight” value was “tended to increase”, the “TA (tibialis anterior) muscle weight” value is recorded as “tended to increase” and the soleus muscle weight result is reported as “tended to increase”. In addition, the “proportion” value in test [3] is “tended to increase”.

Turning to AVSSI (PEP002), in test [1], the ear thickness entry is “significantly decreased”; the ear weight result is on record as “significantly decreased”; the “erythema and swelling of the ear” value was “significantly reduced”.

Turning to KGAY (PEP003), in test [1], the ear thickness result is reported as “significantly decreased”; the ear weight result is recorded as “significantly decreased”; the “erythema and swelling of the ear” value was “significantly reduced”.

With AIS [PEP013], in test [2], the grip strength entry is given as “significantly increased”, the “GC (gastrocnemius) muscle weight” value is on record as “tended to increase”, the “TA (tibialis anterior) muscle weight” value is reported as “tended to increase” and the soleus muscle weight entry was “tended to increase”. Besides, the “proportion” value in test [3] was “tended to increase”.

On to SGAY (PEP009), for which, in test [2], the grip strength entry is given as “significantly increased”, the “GC (gastrocnemius) muscle weight” value is “tended to increase”, the “TA (tibialis anterior) muscle weight” value is on record as “tended to increase” and the soleus muscle weight entry was “tended to increase”. For the same substance, the “proportion” value in test [3] is listed as “tended to increase”.

Take IGAY (PEP008): in test [2], the grip strength result was “significantly increased”, the “GC (gastrocnemius) muscle weight” value is listed as “tended to increase”, the “TA (tibialis anterior) muscle weight” value is “tended to increase” and the soleus muscle weight result is given as “tended to increase”. In test [3], the “proportion” value is on record as “tended to increase”.

As for AQS [PEP011], in test [2], the grip strength entry is given as “significantly increased”, the “GC (gastrocnemius) muscle weight” value is on record as “tended to increase”, the “TA (tibialis anterior) muscle weight” value is reported as “tended to increase” and the soleus muscle weight entry is listed as “tended to increase”. In addition, the “proportion” value in test [3] is recorded as “tended to increase”.
